Assay results: US20230389548A1, “MIXTURES OF PYRIMIDINES AS HERBICIDAL COMPOSITIONS” (SYNGENTA CROP PROTECTION AG, priority 2020, published 2023)

Legend:
Experiment in all cases: Post-emergence glasshouse spray test, visual percentage phytotoxicity after 13 days
Assay type in all cases: in vivo
Stellaria media (STEME) = details: B1
Experimental: (§1) Seeds of Setaria faberi (SETFA), Echinochloa crus-galli (ECHCG), Digitaria sanguinalis (DIGSA), Lolium perenne (LOLPE), Alopecurus myosuroides (ALOMY), Chenopodium album (CHEAL), Ipomoea hederacea (IPOHE), Stellaria media (STEME), Abutilon threophrasti (ABUTH), Amaranthus retroflexus (AMARE) were sown in standard sterilised soil in pots. After cultivation for 8 days under controlled conditions in a glasshouse (at 24/19° C., day/night; 16 hours light; no humidity control), the plants were sprayed at 500 l/Ha with an aqueous spray solution derived from the formulation of the technical active ingredients in a small amount of acetone and a solvent and emulsifier mixture referred to as IF50 (11.12% Emulsogen EL360™+44.44% N-methylpyrrolidone+44.44% Dowanol DPM glycol ether), to create a 50 g/l solution which was then diluted using 0.2% Genapol XO80 (CAS Number: 9043-30-5) as diluent to give the desired final dose of test compound.
(§2) Where active ingredients were applied as mixtures, aqueous spray solutions were prepared as above, containing both active ingredients.
(§3) The test plants were then grown under controlled conditions in a glasshouse (at 24/18° C., day/night; 15 hours light; 50% humidity) and watered twice daily. After 13 days, the test was evaluated visually for percentage phytotoxicity to the plants (where 100=total damage to plant; 0=no damage to plant; and NC=not captured) when compared to control untreated plants. Two to four replicates were applied for each treatment in a randomised block test design.
(§4) 22., E=X+Y−(X*Y/100), where
(§5) X=average percent phytotoxicity of herbicide A when applied at a certain rate Y=average percent phytotoxicity using herbicide B when applied at a certain rate E=the expected effect of the mixture of herbicides A and B as calculated from the Colby formula.

[1] = tested on: Chenopodium album (CHEAL); details: B1
Experimental: as §1, §2, §3, §4, §5

[2] = tested on: Ipomoea hederacea (IPOHE); details: B1
Experimental: as §1, §2, §3, §4, §5

[3] = tested on: Alopecurus myosuroides (ALOMY); details: for ALOMY percentage phytotoxicity: B1; for Observed phytotoxicity ALOMY: B2.2.5
Experimental: as §1, §2, §3, §4, §5

[4] = tested on: Echinochloa crus-galli (ECHCG); details: for ECHCG percentage phytotoxicity: B1; for Observed phytotoxicity ECHCG: B2.2.2
Experimental: as §1, §2, §3, §4, §5

Lolium perenne (LOLPE) = details: for LOLPE percentage phytotoxicity: B1; for Observed phytotoxicity LOLPE: B2.2.4
Experimental: as §1, §2, §3, §4, §5

Setaria faberi (SETFA) = details: for SETFA percentage phytotoxicity: B1; for Observed phytotoxicity SETFA: B2.2.1
Experimental: as §1, §2, §3, §4, §5

[5] = tested on: Abutilon threophrasti (ABUTH); details: B1
Experimental: as §1, §2, §3, §4, §5

[6] = tested on: Digitaria sanguinalis (DIGSA); details: for DIGSA percentage phytotoxicity: B1; for Observed phytotoxicity DIGSA: B2.2.3
Experimental: as §1, §2, §3, §4, §5

[7] = tested on: Amaranthus retroflexus (AMARE); details: for AMARE percentage phytotoxicity: B1; for Observed phytotoxicity AMARE: B2.2.6
Experimental: as §1, §2, §3, §4, §5

CC1(C)CN(Cc2ccccc2NS(=O)(=O)C(F)(F)F)C1=O [B-IV] gave an STEME percentage phytotoxicity (Stellaria media (STEME); 31.25 g/ha post-emergence) of 85%, an STEME percentage phytotoxicity (Stellaria media (STEME); 62.5 g/ha post-emergence) of 85% and an STEME percentage phytotoxicity (Stellaria media (STEME); 125 g/ha post-emergence) of 91%. The STEME percentage phytotoxicity (Stellaria media (STEME); 250 g/ha post-emergence) was 93%, the STEME percentage phytotoxicity (Stellaria media (STEME); 500 g/ha post-emergence) was 90% and the STEME percentage phytotoxicity (Stellaria media (STEME); 1000 g/ha post-emergence) was 93%. It also gave a CHEAL percentage phytotoxicity ([1]; 31.25 g/ha post-emergence) of 0%, a CHEAL percentage phytotoxicity ([1]; 62.5 g/ha post-emergence) of 8% and a CHEAL percentage phytotoxicity ([1]; 125 g/ha post-emergence) of 15%. It also gave a CHEAL percentage phytotoxicity ([1]; 250 g/ha post-emergence) of 40%, a CHEAL percentage phytotoxicity ([1]; 500 g/ha post-emergence) of 25% and a CHEAL percentage phytotoxicity ([1]; 1000 g/ha post-emergence) of 75%. For the same compound, the IPOHE percentage phytotoxicity ([2]; 31.25 g/ha post-emergence) was 55%, the IPOHE percentage phytotoxicity ([2]; 62.5 g/ha post-emergence) was 80% and the IPOHE percentage phytotoxicity ([2]; 125 g/ha post-emergence) was 75%. It also gave an IPOHE percentage phytotoxicity ([2]; 250 g/ha post-emergence) of 83%, an IPOHE percentage phytotoxicity ([2]; 500 g/ha post-emergence) of 83% and an IPOHE percentage phytotoxicity ([2]; 1000 g/ha post-emergence) of 94%. It also gave an ALOMY percentage phytotoxicity ([3]; 31.25 g/ha post-emergence) of 4%, an ALOMY percentage phytotoxicity ([3]; 62.5 g/ha post-emergence) of 2% and an ALOMY percentage phytotoxicity ([3]; 125 g/ha post-emergence) of 1%. The ALOMY percentage phytotoxicity ([3]; 250 g/ha post-emergence) was 3%, the ALOMY percentage phytotoxicity ([3]; 500 g/ha post-emergence) was 8% and the ALOMY percentage phytotoxicity ([3]; 1000 g/ha post-emergence) was 8%. For the same compound, the “Observed phytotoxicity ALOMY” value ([3]; 500 g/ha post-emergence) was 8%, the “Observed phytotoxicity ALOMY” value ([3]; 1000 g/ha post-emergence) was 8% and the ECHCG percentage phytotoxicity ([4]; 31.25 g/ha post-emergence) was 1%. It also gave an ECHCG percentage phytotoxicity ([4]; 62.5 g/ha post-emergence) of 13%, an ECHCG percentage phytotoxicity ([4]; 125 g/ha post-emergence) of 38% and an ECHCG percentage phytotoxicity ([4]; 250 g/ha post-emergence) of 60%. For the same compound, the ECHCG percentage phytotoxicity ([4]; 500 g/ha post-emergence) was 78%, the ECHCG percentage phytotoxicity ([4]; 1000 g/ha post-emergence) was 90% and the “Observed phytotoxicity ECHCG” value ([4]; 125 g/ha post-emergence) was 38%. The “Observed phytotoxicity ECHCG” value ([4]; 250 g/ha post-emergence) was 60%, the “Observed phytotoxicity ECHCG” value ([4]; 500 g/ha post-emergence) was 78% and the LOLPE percentage phytotoxicity (Lolium perenne (LOLPE); 31.25 g/ha post-emergence) was 0%. It also gave an LOLPE percentage phytotoxicity (Lolium perenne (LOLPE); 62.5 g/ha post-emergence) of 0%, an LOLPE percentage phytotoxicity (Lolium perenne (LOLPE); 125 g/ha post-emergence) of 0% and an LOLPE percentage phytotoxicity (Lolium perenne (LOLPE); 250 g/ha post-emergence) of 8%. For the same compound, the LOLPE percentage phytotoxicity (Lolium perenne (LOLPE); 500 g/ha post-emergence) was 38%, the LOLPE percentage phytotoxicity (Lolium perenne (LOLPE); 1000 g/ha post-emergence) was 65% and the “Observed phytotoxicity LOLPE” value (Lolium perenne (LOLPE); 62.5 g/ha post-emergence) was 0%. The “Observed phytotoxicity LOLPE” value (Lolium perenne (LOLPE); 125 g/ha post-emergence) was 0%, the “Observed phytotoxicity LOLPE” value (Lolium perenne (LOLPE); 250 g/ha post-emergence) was 8% and the “Observed phytotoxicity LOLPE” value (Lolium perenne (LOLPE); 500 g/ha post-emergence) was 38%. For the same compound, the “Observed phytotoxicity LOLPE” value (Lolium perenne (LOLPE); 1000 g/ha post-emergence) was 65%, the SETFA percentage phytotoxicity (Setaria faberi (SETFA); 31.25 g/ha post-emergence) was 2% and the SETFA percentage phytotoxicity (Setaria faberi (SETFA); 62.5 g/ha post-emergence) was 0%. For the same compound, the SETFA percentage phytotoxicity (Setaria faberi (SETFA); 125 g/ha post-emergence) was 10%, the SETFA percentage phytotoxicity (Setaria faberi (SETFA); 250 g/ha post-emergence) was 8% and the SETFA percentage phytotoxicity (Setaria faberi (SETFA); 500 g/ha post-emergence) was 33%. The SETFA percentage phytotoxicity (Setaria faberi (SETFA); 1000 g/ha post-emergence) was 63%, the “Observed phytotoxicity SETFA” value (Setaria faberi (SETFA); 125 g/ha post-emergence) was 10% and the “Observed phytotoxicity SETFA” value (Setaria faberi (SETFA); 250 g/ha post-emergence) was 8%. The “Observed phytotoxicity SETFA” value (Setaria faberi (SETFA); 500 g/ha post-emergence) was 33%, the “Observed phytotoxicity SETFA” value (Setaria faberi (SETFA); 1000 g/ha post-emergence) was 63% and the ABUTH percentage phytotoxicity ([5]; 31.25 g/ha post-emergence) was 80%. For the same compound, the ABUTH percentage phytotoxicity ([5]; 62.5 g/ha post-emergence) was 80%, the ABUTH percentage phytotoxicity ([5]; 125 g/ha post-emergence) was 90% and the ABUTH percentage phytotoxicity ([5]; 250 g/ha post-emergence) was 98%. It also gave an ABUTH percentage phytotoxicity ([5]; 500 g/ha post-emergence) of 85%, an ABUTH percentage phytotoxicity ([5]; 1000 g/ha post-emergence) of 85% and a DIGSA percentage phytotoxicity ([6]; 31.25 g/ha post-emergence) of 0%. It also gave a DIGSA percentage phytotoxicity ([6]; 62.5 g/ha post-emergence) of 3%, a DIGSA percentage phytotoxicity ([6]; 125 g/ha post-emergence) of 8% and a DIGSA percentage phytotoxicity ([6]; 250 g/ha post-emergence) of 10%. The DIGSA percentage phytotoxicity ([6]; 500 g/ha post-emergence) was 15%, the DIGSA percentage phytotoxicity ([6]; 1000 g/ha post-emergence) was 55% and the “Observed phytotoxicity DIGSA” value ([6]; 250 g/ha post-emergence) was 10%. For the same compound, the “Observed phytotoxicity DIGSA” value ([6]; 500 g/ha post-emergence) was 15%, the “Observed phytotoxicity DIGSA” value ([6]; 1000 g/ha post-emergence) was 55% and the AMARE percentage phytotoxicity ([7]; 31.25 g/ha post-emergence) was 0%. It also gave an AMARE percentage phytotoxicity ([7]; 62.5 g/ha post-emergence) of 15%, an AMARE percentage phytotoxicity ([7]; 125 g/ha post-emergence) of 43% and an AMARE percentage phytotoxicity ([7]; 250 g/ha post-emergence) of 43%. The AMARE percentage phytotoxicity ([7]; 500 g/ha post-emergence) was 75%, the AMARE percentage phytotoxicity ([7]; 1000 g/ha post-emergence) was 85% and the “Observed phytotoxicity AMARE” value ([7]; 31.25 g/ha post-emergence) was 0%. For the same compound, the “Observed phytotoxicity AMARE” value ([7]; 62.5 g/ha post-emergence) was 15%.
